Laboratory results taken from PubChem BioAssay AID330 (DTP/NCI, 2004).
Values joined by “and” are separate entries in the source; they are usually repeats but may differ in a detail not shown here. Equal values may be shown once. Inconclusive results and toxic doses are left out.

Tested on: P388 leukemia ip, CD2F1 mice, survival T/C
Experiment: NCI In Vivo Anticancer Drug Screen. Data for tumor model P388 Leukemia (intraperitoneal) in CD2F1 (CDF1) mice
Settings: endpoint: median survival time, higher = longer survival
Outline: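 Mice carrying the transplanted tumor received test compound or vehicle. Survival was recorded in each group, and the value is the treated-group measurement divided by that of the vehicle-treated control group.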

[1] = dose: 100.0 mg/kg/injection, schedule: Q04DX003 (ip), vehicle: saline with Tween-80
[2] = dose: 200.0 mg/kg/injection, schedule: Q04DX003 (ip), vehicle: saline with Tween-80
[3] = dose: 50.0 mg/kg/injection, schedule: Q01DX009 (ip), vehicle: saline with Tween-80
[4] = dose: 100.0 mg/kg/injection, schedule: Q01DX009 (ip), vehicle: saline with Tween-80
[5] = dose: 200.0 mg/kg/injection, schedule: Q01DX009 (ip), vehicle: saline with Tween-80

With `COC1OC(CS[As](C)C)C(O)C(O)C1O` (stereo not given) the T/C (dose: 6.25 mg/kg/injection, schedule: Q01DX009 (ip), vehicle: Klucel (hydroxypropylcellulose) (HPC)) was 95 % of control, the T/C (dose: 12.5 mg/kg/injection, schedule: Q01DX009 (ip), vehicle: Klucel (hydroxypropylcellulose) (HPC)) was 100 % of control and the T/C (dose: 25.0 mg/kg/injection, schedule: Q01DX009 (ip), vehicle: Klucel (hydroxypropylcellulose) (HPC)) was 103 % of control. The T/C (dose: 50.0 mg/kg/injection, schedule: Q01DX009 (ip), vehicle: Klucel (hydroxypropylcellulose) (HPC)) was 106 % of control.
For `Nc1nc2c(c(=O)[nH]1)NC(CN(C=O)c1ccc(C(=O)NC(CCC(=O)O)C(=O)O)cc1)CC2` (stereo not given), the T/C (dose: 50.0 mg/kg/injection, schedule: Q01DX001 (ip), vehicle: saline) was 99 % of control, the T/C (dose: 100.0 mg/kg/injection, schedule: Q01DX001 (ip), vehicle: saline) was 100 % of control and the T/C (dose: 200.0 mg/kg/injection, schedule: Q01DX001 (ip), vehicle: saline) was 91 % of control.
In the case of `CC(C)=NNc1nc(N(C)C)nc(N(C)C)n1`, the T/C [1] is reported as 105 % of control, the T/C [2] is reported as 105 % of control and the T/C (dose: 400.0 mg/kg/injection, schedule: Q04DX003 (ip), vehicle: saline with Tween-80) is reported as 103 % of control.
With `CN(C=O)COC(=O)c1ccccc1` the T/C (dose: 31.25 mg/kg/injection, schedule: Q01DX005 (ip), vehicle: distilled water + Tween-80) was 104 % of control, the T/C (dose: 62.5 mg/kg/injection, schedule: Q01DX005 (ip), vehicle: distilled water + Tween-80) was 96 % of control and the T/C (dose: 125.0 mg/kg/injection, schedule: Q01DX005 (ip), vehicle: distilled water + Tween-80) was 93 % of control. For the same molecule, the T/C (dose: 250.0 mg/kg/injection, schedule: Q01DX005 (ip), vehicle: distilled water + Tween-80) was 104 % of control.
For `O=C(O)/C=C/c1csc(-c2ccc(Cl)cc2)n1`, the T/C [3] was 88 % of control, the T/C [4] was 88 % of control and the T/C [5] was 106 % of control.
`CC1(C)COCN1COC1CCCCC1` was tested, and the T/C (dose: 25.0 mg/kg/injection, schedule: Q01DX009 (ip), vehicle: saline) was 120 % of control.
For `COc1ccn(C2CCCO2)c(=O)n1` (stereo not given), the T/C (dose: 50.0 mg/kg/injection, schedule: Q01DX005 (ip), vehicle: saline) was 95 % of control, the T/C (dose: 100.0 mg/kg/injection, schedule: Q01DX005 (ip), vehicle: saline) was 100 % of control and the T/C (dose: 200.0 mg/kg/injection, schedule: Q01DX005 (ip), vehicle: saline) was 88 % of control.
`O=Cc1ccc2nc(C(Cl)(Cl)Cl)ccc2c1` was tested, and the T/C [3] was 100 % of control, the T/C [4] was 105 % of control and the T/C [5] was 100 % of control.
`C1CCC2(CC1)C[Se]C2` was tested, and the T/C (dose: 7.5 mg/kg/injection, schedule: Q01DX009 (ip), vehicle: saline with Tween-80) was 108 % of control, the T/C (dose: 15.0 mg/kg/injection, schedule: Q01DX009 (ip), vehicle: saline with Tween-80) was 113 % of control and the T/C (dose: 30.0 mg/kg/injection, schedule: Q01DX009 (ip), vehicle: saline with Tween-80) was 105 % of control.
In the case of `Cc1ccc(C)c(S(=O)(=O)Nc2c([N+](=O)[O-])cc([N+](=O)[O-])c3ccccc23)c1`, the T/C (dose: 50.0 mg/kg/injection, schedule: Q04DX002 (ip), vehicle: saline with Tween-80) is reported as 95 % of control and the T/C (dose: 100.0 mg/kg/injection, schedule: Q04DX002 (ip), vehicle: saline with Tween-80) is reported as 88 % of control.
With `Cc1[nH]nc(C(N)=O)c1N=NN(C)C` the T/C (dose: 12.5 mg/kg/injection, schedule: Q01DX009 (ip), vehicle: saline with Tween-80) was 113 % of control, the T/C [3] was 204 % of control and 209 % of control and the T/C (dose: 50.0 mg/kg/injection, schedule: Q04DX003 (ip), vehicle: saline with Tween-80) was 122 % of control. For the same molecule, the T/C [1] was 150 % of control, the T/C (dose: 132.0 mg/kg/injection, schedule: Q04DX003 (ip), vehicle: saline with Tween-80) was 159 % of control and the T/C [2] was 154 % of control.
